Experiments:
Type in all cases: physicochemical
[1] = Accelerated deterioration (xenon weather meter X25, 120 hours) of photochromic laminate prepared by coating method; details: 0.25 mmol per 100 g monomers, A120/A0×100 after 120 hours xenon weather meter
Excerpt: First, the photochromic compound obtained in Example 1, a photoinitiator, and a polymerizable compound were mixed to obtain a curable composition.
Polyethylene glycol dimethacrylate (average molecular weight: 736): 42 parts by mass • Polyethylene glycol dimethacrylate (average molecular weight: 536): 12 parts by mass • Trimethylolpropane trimethacrylate: 38 parts by mass γ-methacryloyloxypropyl trimethoxysilane: 2 parts by mass Glycidyl methacrylate: 1 part by mass
Note that the photochromic compound was added to the curable composition so that the amount of the photochromic compound was 0.25 mmol based on 100 g of the total amount of the radical-polymerizable monomers.
Phenylbis(2,4,6-trimethylbenzoyl)phosphine oxide (photoinitiator: Omnirad 819): 0.3 parts by mass Ethylene bis(oxyethylene) bis[3-(5-tert-butyl-4-hydroxy-m-tolyl)propionate] (stabilizer, Irganox 245): 1 part by mass Bis(1,2,2,6,6-pentamethyl-4-piperidyl) sebacate: 3 parts by mass Leveling agent (L7001) manufactured by Dow Corning Toray Co.,Ltd.: 0.1 part by mass
First, a thiourethane-based plastic lens having a central thickness of 2 mm and a refractive index of 1.60 was prepared as the optical substrate. Note that this thiourethane-based plastic lens was pre-treated by alkaline etching with a 10% sodium hydroxide aqueous solution at 50°C for 5 minutes, followed by sufficient washing with distilled water.
A surface of the above-described plastic lens was coated with a moisture-curable primer (product name: TR-SC-P, manufactured by Tokuyama Corporation) at a rotation frequency of 70 rpm for 15 seconds, followed by 1000 rpm for 10 seconds, using a spin coater (1H-DX2, manufactured by MIKASA CO., LTD), Subsequently, about 2 g of the photochromic curable composition obtained above was spin-coated at a rotation frequency of 60 rpm for 40 seconds, followed by 600 rpm for 10 to 20 seconds, to form a photochromic coating layer with a film thickness of 40 µm.
The lens with the surface coated with the photochromic curable composition (photochromic coating layer) was irradiated with light using a metal halide lamp with an output power of 200 mW/cm^2 in a nitrogen gas atmosphere for 90 seconds to cure the coating film. Subsequently, the lens was further heated at 110°C for 1 hour to prepare a photochromic laminate having a photochromic layer.
• [1] Maximum Absorption Wavelength (λmax): The maximum absorption wavelength after color development, measured using a spectrophotometer (instantaneous multichannel photodetector MCPD3000) manufactured by Otsuka Electronics Co., Ltd. was used as an indicator for the color tone during the color development. • [2] 23°C Color Optical Density (A23): A difference between an absorbancy measured after light irradiation at 23°C for 300 seconds {ε(300)} and an absorbancy without light irradiation ε(0) at the maximum absorption wavelength was used as an indicator for the color optical density. […] 23°C color fading half-life [τ1/2 (sec.)]: A time required for the absorbancy of the sample at the maximum absorption wavelength to decrease to 1/2 of {ε(300)-ε(0)} when the light irradiation was terminated after the light irradiation at 23°C for 300 seconds, was used as an indicator for the color fading speed. The shorter this time, the higher the color fading speed. • [4] Residual rate (A120/A0×100): The obtained photochromic plastic lens was subjected to accelerated deterioration using a xenon weather meter X25 manufactured by Suga Test Instruments Co., Ltd. for 120 hours. Subsequently, the color optical density was evaluated before and after the test, then a color optical density before the test (A0) and a color optical density after the test (A120) were measured, and a ratio (A120/A0) was defined as a residual rate. The residual rate was used as an indicator for a color developing durability. The higher the residual rate, the higher the color developing durability. […]

[2] = Photochromic properties of photochromic cured product prepared by kneading method; details: 0.106 mmol per 100 g monomer; for A23: 1 mm cured product, 23°C color optical density ε(300)-ε(0); for Maximum absorption wavelength: 1 mm thiourethane cured product, after color development
Experimental: (§1) • [1] Maximum Absorption Wavelength (λmax): The maximum absorption wavelength after color development, measured using a spectrophotometer (instantaneous multichannel photodetector MCPD3000) manufactured by Otsuka Electronics Co., Ltd. was used as an indicator for the color tone during the color development. • [2] 23°C Color Optical Density (A23): A difference between an absorbancy measured after light irradiation at 23°C for 300 seconds {ε(300)} and an absorbancy without light irradiation ε(0) at the maximum absorption wavelength was used as an indicator for the color optical density. […] 23°C color fading half-life [τ1/2 (sec.)]: A time required for the absorbancy of the sample at the maximum absorption wavelength to decrease to 1/2 of {ε(300)-ε(0)} when the light irradiation was terminated after the light irradiation at 23°C for 300 seconds, was used as an indicator for the color fading speed. The shorter this time, the higher the color fading speed. • [4] Residual rate (A120/A0×100): The obtained photochromic plastic lens was subjected to accelerated deterioration using a xenon weather meter X25 manufactured by Suga Test Instruments Co., Ltd. for 120 hours. Subsequently, the color optical density was evaluated before and after the test, then a color optical density before the test (A0) and a color optical density after the test (A120) were measured, and a ratio (A120/A0) was defined as a residual rate. The residual rate was used as an indicator for a color developing durability. The higher the residual rate, the higher the color developing durability. The results of Examples 26, 50, and Comparative Examples 1 to 8 are summarized in Table 1, and the results of Examples 27 to 49 are summarized in Tables 2 and 3.
(§2) First, the photochromic compound obtained in Example 1, additives, and a polymerizable compound were mixed to obtain a curable composition.
(§3) As the polymerizable compound, a combination of the following polymerizable monomers was used. • 1,3-bis(isocyanatomethyl)cyclohexane: 36.7 parts by mass Pentaerythritol tetrakis(3-mercaptopropionate): 39.4 parts by mass • Polyoxyethylene polyoxypropylene lauryl ether (Wonder Surf 140 manufactured by Aoki Oil Industrial Co., Ltd.): 17.4 parts by mass • 1-decanethiol: 2.8 parts by mass • RX-1 adjusted according to the method described in Patent Document 13: 3.8 parts by mass
(§4) Note that the photochromic compound was added to the curable composition so that the amount of the photochromic compound was 0.106 mmol based on 100 g of the total amount of the polymerizable monomer. The following additives were used: Dimethyltin dichloride • : 0.05 part by mass • Irganox 245: 0.1 part by mass • 2-ethylhexyl 4-methoxycinnamate: 0.6 part by mass
(§5) The prepared curable composition was thoroughly defoamed, then injected into a glass mold having a 1 mm gap, and polymerized by cast polymerization. The polymerization was carried out in an air furnace while gradually raising the temperature from 27°C to 120°C over 18 hours. After the polymerization, the cured product was removed from the glass mold to obtain a photochromic cured product having a thickness of 1 mm. The obtained photochromic cured product was evaluated in the same manner as in Example 26.
(§6) (Examples 85 to 99, and Comparative Example 14 to 18) Photochromic cured products were prepared using photochromic compounds presented in Tables 6 and 7 in the same manner as in Example 84. The results of Examples 84 and 85 and Comparative Examples 14 to 18 are summarized in Table 6, and the results of Examples 86 to 99 are summarized in Table 7.

[3] = Accelerated deterioration (xenon weather meter X25, 120 hours) of photochromic cured product prepared by kneading method; details: 1 mm cured product, 0.106 mmol per 100 g monomer, A120/A0×100 after 120 hours xenon weather meter
Experimental: as §1, §2, §3, §4, §5, §6

Residual rate [1] [%]	A23 [2]	Maximum absorption wavelength [2] [nm]	Residual rate [3] [%]	SMILES	also measured
68	0.56 -	511	75	CCCc1ccc(C2(c3ccc(N(C)c4ccccc4)cc3)C=Cc3c4c(c5cc(Sc6c(C)cccc6C)c(OC)cc5c3O2)-c2ccccc2C42CC(C)(C)CC(C)(C)C2)cc1 (stereo not shown) [Example 5]	A23 ([2]; listed as Formula (51)): 0.69 -; Maximum absorption wavelength ([2]; listed as Formula (51)): 598 nm
65	0.86 -	496	72	CCCC1(CCC)c2cc(OC(F)(F)F)ccc2-c2c1c1c(c3cc(OC)c(Sc4c(C)cccc4C)cc23)OC(c2ccc(N(C)c3ccccc3)cc2)(c2ccc(OC)c(OC)c2)C=C1 (stereo not shown) [Example 57]	A23 ([2]; listed as Formula (110)): 0.88 -; Maximum absorption wavelength ([2]; listed as Formula (110)): 625 nm
65	0.96 -	503	72	COc1ccc(C2(c3ccc(N(C)c4ccccc4)cc3)C=Cc3c4c(c5cc(-c6ccc(N7CCOCC7)cc6)c(OC)cc5c3O2)-c2ccccc2C4(C)C)cc1 (stereo not shown) [Example 1]	A23 ([2]; listed as Formula (37)): 1.06 -; Maximum absorption wavelength ([2]; listed as Formula (37)): 610 nm
61	0.75 -	499	68	CCCC1(CCC)c2ccccc2-c2c1c1c(c3cc(OC)c(-c4ccc(OC)cc4OC)cc23)OC(c2ccc(N(C)c3ccccc3)cc2)(c2ccc(OC)c(F)c2)C=C1 (stereo not shown) [Example 7]	A23 ([2]; listed as Formula (55)): 0.99 -; Maximum absorption wavelength ([2]; listed as Formula (55)): 610 nm
61	1.02 -	479	67	COCCCCC1(CCCCOC)c2ccccc2-c2c1c1c(c3cc(-c4ccc(OC)cc4OC)c(OC)cc23)OC(c2ccc(N(C)c3ccccc3)cc2)(c2ccc3c(c2)CCO3)C=C1 (stereo not shown) [Example 62]	A23 ([2]; listed as Formula (124)): 1.11 -; Maximum absorption wavelength ([2]; listed as Formula (124)): 594 nm
62	1.32 -	505	65	CCCC1(CCC)c2ccccc2-c2c1c1c(c3cc(OC)c(-c4ccc(N(C)c5ccccc5)cc4)cc23)OC(c2ccc(C)cc2)(c2ccc(N(C)c3ccccc3)cc2)C=C1 (stereo not shown) [Example 24]	A23 ([2]; listed as Formula (86)): 1.31 -; Maximum absorption wavelength ([2]; listed as Formula (86)): 607 nm
63	0.59 -	496	71	COCCN(c1ccccc1)c1ccc(C2(c3ccc4c(c3)OCCO4)C=Cc3c4c(c5cc6c(cc5c3O2)SC(C)(C)O6)-c2ccccc2C42CCC3(CCCCC3)CC2)cc1 (stereo not shown) [Example 14]	A23 ([2]; listed as Formula (71)): 0.65 -; Maximum absorption wavelength ([2]; listed as Formula (71)): 590 nm; Residual rate ([3]; listed as Formula (71)): 70%
60				COCCCCC1(CCCCOC)c2cc(Sc3c(C)cccc3C)ccc2-c2c1c1c(c3cc(OC)ccc23)OC(c2ccc(OC)cc2)(c2ccc(N(C)c3ccc(OC)cc3)cc2)C=C1 (stereo not shown) [Example 11]	
60				COCCC1(CCOC)c2ccccc2-c2c1c1c(c3cc(OC)c(-c4ccc(N(c5ccccc5)c5ccccc5)cc4)cc23)OC(c2ccc(Oc3ccccc3)cc2)(c2ccc(N(C)c3ccccc3)cc2)C=C1 (stereo not shown) [Example 23]	
58				CCCCOCCC1(CCOCCCC)c2ccccc2-c2c1c1c(c3cc(OC)c(NC(=O)c4ccccc4)cc23)OC(c2ccc(N(C)c3ccccc3)cc2)(c2ccc(OC)c(F)c2)C=C1 (stereo not shown) [Example 53]	Residual rate ([1]; listed as Formula (95)): 60%

SMILES	Residual rate [1] [%]	A23 [2]	Maximum absorption wavelength [2] [nm]	Residual rate [3] [%]	also measured
COc1ccc(N(C)c2ccc(C3(c4ccc(CCO[Si](C)(C)CC[Si](O[Si](C)(C)C)(O[Si](C)(C)C)O[Si](C)(C)C)cc4)C=Cc4c5c(c6cc(N(C)c7ccccc7)c(OC)cc6c4O3)-c3ccc(C(F)(F)F)cc3C53CCC(C)(C)CC3)cc2)cc1 (stereo not shown) [Example 60]	62				Residual rate ([1]; listed as Formula (121)): 64%

— patent publication EP4692072A1, “PHOTOCHROMIC COMPOUND, PROPARGYL ALCOHOL COMPOUND, CURABLE COMPOSITION, OPTICAL ARTICLE, LENS, AND SPECTACLES” (TOKUYAMA CORPORATION, priority 2023, dated 2024)
